Data published in patent EP1856102B1, “MEDICAMENTS FOR ALZHEIMER” (Tseti, Ioulia, priority 2005, dated 2006).
Marks after values point to notes of the source that are not given here.

Assays:
[1] = tested on: carrageenan-induced edema of the rat hind paw; assay: Carrageenan-induced edema of the rat hind paw; format: in vivo, female Fischer-344 rats; conditions: 0.3mmol/kg i.p. immediately after carrageenan; paws weighed 3.5 h later; edema suppression in comparison to controls
Method: Edema was induced via i.d. injection of carrageenan (0.1 ml of a 2% w/v aqueous solution) into the right hind paw of female Fischer-344 rats (200-220g) (the left paw serving as control). The compounds under study were dissolved or suspended in water containing a few drops of Tween 80 and were administered i.p. (0.3mmol/kg) immediately after the carrageenan injection. The mice were euthanazed 3.5 h later, both hind paws were severed above the ankle joint and weighted separately. For each animal the swelling caused by the phlogistic was given as percentage of weight increase of right hind paw in comparison to the uninjected left hind paw, and from that, the percentage of edema suppression in comparison to controls was calculated. The parent anti-inflammatory acids (at the same molar concentrations) were used as reference compounds, in addition to the absolute control. […] Table 1: Effect of the test compounds on carrageenan-induced edema of the rat hind paw

female Fischer-344 rats = conditions: s.c. once daily for 4 days, dose 84 µM/kg (Indomethacin, 1, 2, 3) or 1350 µM/kg (Naproxen, 4, 5); for Perforating ulcers (%): % of animals which developed perforating ulcers; for Mortality (%): (dead/total) x 100, recorded 24 h after last treatment
Method: Equimolar doses of the parent NSAIDs and the respective derivatives were administered s.c. once daily for 4 days to female Fischer-344 rats (160-180g). The used dose was ca LD50 of the parent NSAID. The incidence of perforating gastrointestinal ulcers, body weight change, melena and mortality were recorded 24 h after the last treatment. […] Table 3: Gastrointestinal toxicity of indomethacin, naproxen and some novel derivatives in rats

[2] = tested on: FCA-induced experimental arthritis in rats; assay: Adjuvant-induced disease (FCA-induced experimental arthritis); format: in vivo, female Fischer-344 rats; conditions: 0.3-0.6 mmol/kg i.p. once daily for 14 days; in comparison to non treated AID rats
Method: Adjuvant-induced disease (AID) was induced via i.d. injection of Freund's complete adjuvant (0.1 ml of FCA) in the foot pad of the right hind paw of female Fischer-344 rats. The compounds under study were dissolved or suspended in water containing a few drops of Tween 80 and were administered i.p. (0.3-0.6 mmol/kg) once daily for 14 days. In order to observe the progress of local inflammatory reaction, the change in swelling of paw with adjuvant treatment was evaluated by allocation of points (inflammatory score) on an arbitrary scale, while for the quantification of arthritis the arthritic score was recorded.
Table 2: Effect of the test compounds on FCA-induced experimental arthritis in rats

[3] = Interaction with the stable free radical DPPH; conditions: DPPH 0.2 mmol/L in ethanol, room temperature, 45 min
Method: The test compounds were dissolved in absolute ethanol (analytical grade, iron content was less than 10^-3 (w/v), added to an equal volume of an ethanolic solution of DPPH (final concentration 0.2 mmol/L) at various concentrations (0.1 and 0.2 mmol/L) and kept at room temperature. Absorbance (517 nm) was recorded at 45 min. Each experiment was performed at least in triplicate. Table 5: % Interaction of the test compounds with the stable free radical DPPH

[4] = tested on: lipid peroxidation of hepatic microsomal fraction; assay: In vitro lipid peroxidation (TBA reactive material); format: biochemical, Fischer-344 rats; conditions: at 45 min, 37°C; heat inactivated rat hepatic microsomal fraction, FeSO4/ascorbic acid
Method: Hepatic microsomal fraction from untreated Fischer-344 rats was prepared. The incubation mixture contained heat inactivated (90°C for 90 sec) hepatic microsomal fraction, corresponding to 2.5 mg protein/ml (fmal concentration) or 4 mmol/L fatty acid residues, ascorbic acid (0.2 mmol/L) in Tris-HCl/KCl buffer (50 mmol/L / 150mmol/L, pH 7.4) and various concentrations (1-0.05 mmol/L) of the test compounds dissolved in dimethylsulfoxide (DMSO). The reaction was started by the addition of a freshly prepared FeSO4 solution (10 µM/L) and the mixture was incubated at 37°C for 45 min. Aliquots (0.3mL) from the incubation mixture were taken at various time intervals. Lipid peroxidation was assessed spectrophotometrically (535 against 600 nm) by the determination of the TBA reactive material. Under the above experimental conditions, all compounds, as well as DMSO, were tested and found not to interfere with the assay. Each experiment was performed at least in triplicate.

[5] = tested on: tyloxapol-induced hyperlipidemia; assay: Tyloxapol-induced hyperlipidemia in rats; format: in vivo; conditions: 56µmol/kg i.p. once, 24 h later, tyloxapol 200 mg/kg i.p.; for % decrease LDL: plasma LDL-cholesterol; for % decrease TC: plasma total cholesterol; for % decrease TG: plasma triglyceride
Method: The hypocholesterolemic and hypolipidemic activity of the test compounds was assessed in vivo by the inhibition of tyloxapol-induced hyperlipidemia (200 mg/kg i.p.) in rats. The novel NSAID derivatives were administered (56µmol/kg, i.p., once) to hypercholesterolemic rats and 24 h later the plasma total cholesterol (TC), LDL and triglyceride (TG) concentrations were determined in blood taken from the aorta. […] Table 6: Effect of the test compounds on plasma total cholesterol, triglyceride and LDL-cholesterol levels of hyperlipidemic rats

COc1ccc2c(c1)c(CC(=O)N1CCCC1C(=O)NCCS)c(C)n2C(=O)c1ccc(Cl)cc1 (stereo not drawn) [Compound 1, 1-{2-[1-(4-Chloro-benzoyl)-5-methoxy-2-methyl-1-H-indol-3-yl]-acetyl}-pyrrolydine-2-carboxylic acid (2-mercapto-ethyl) amide]
% Edema inhibition [1]: 23%
Perforating ulcers (%) (female Fischer-344 rats): 0%
Mortality (%) (female Fischer-344 rats): 0%
Body weight change (female Fischer-344 rats): +1.3 g/100 body weight
% Inhibition of experimental arthritis [2]: 50%

CCOC(=O)C(CS)NC(=O)C1CCCN1C(=O)Cc1c(C)n(C(=O)c2ccc(Cl)cc2)c2ccc(OC)cc12 (stereo not drawn) [Compound 2, 2-[(1-{2-[1-(4-Chloro-benzoyl)-5-methoxy-2-methyl-1-H-indol-3-yl]-acetyl}-pyrrolidine-2-carbonyl)-amino]-3-mercapto-propionic acid ethyl ester]
% Edema inhibition [1]: 20%
% Interaction with the stable free radical DPPH ([3]; compound 0.2mM): 70%
% Interaction with the stable free radical DPPH ([3]; compound 0.1mm): 44%
Perforating ulcers (%) (female Fischer-344 rats): 0%
Mortality (%) (female Fischer-344 rats): 0%
Body weight change (female Fischer-344 rats): +3.9 g/100 body weight
IC50 [4]: 390 µM
% Inhibition of experimental arthritis [2]: 75%

COc1ccc2c(c1)c(CC(=O)N1CCCC1C(=O)Oc1ccc(C)cc1OC)c(C)n2C(=O)c1ccc(Cl)cc1 (stereo not drawn) [Compound 3, 1-{2-[1-(4-Chloro-benzoyl)-5-methoxy-2-methyl-1-H-indol-3-yl]-acetyl}-pyrrolidine-2-carboxylic acid-2-methoxy-4-methyl-phenyl ester]
Perforating ulcers (%) (female Fischer-344 rats): 0%
Mortality (%) (female Fischer-344 rats): 0%
Body weight change (female Fischer-344 rats): +11.1 g/100 body weight

COc1ccc2cc(C(C)C(=O)N3CCCC3C(=O)NCCS)ccc2c1 (stereo not drawn) [Compound 4, 1-[2-(6-methoxy-naphthalen-2-yl)-propionyl]-pyrrolidine-2-carboxylic acid-(2-mercapto-ethyl) amide]
% Edema inhibition [1]: 30%
% Interaction with the stable free radical DPPH ([3]; compound 0.2mM): 78%
% Interaction with the stable free radical DPPH ([3]; compound 0.1mm): 57%
% Inhibition of experimental arthritis [2]: 30%

CCOC(=O)C(CS)NC(=O)C1CCCN1C(=O)C(C)c1ccc2cc(OC)ccc2c1 (stereo not drawn) [Compound 5]
% Edema inhibition [1]: 30%
% Interaction with the stable free radical DPPH ([3]; compound 0.2mM): 85%
% Interaction with the stable free radical DPPH ([3]; compound 0.1mm): 65%
Perforating ulcers (%) (female Fischer-344 rats): 0%
Mortality (%) (female Fischer-344 rats): 0%
Body weight change (female Fischer-344 rats): +1.5 g/100 body weight
IC50 [4]: 320 µM
% decrease LDL [5]: 55* %
% decrease TC [5]: 58** %
% decrease TG [5]: 68.7** %
% Inhibition of experimental arthritis [2]: 100%

COc1ccc2cc(C(C)C(=O)N3CCCC3C(=O)Oc3ccc(C)cc3OC)ccc2c1 (stereo not drawn) [Compound 6, 1-[2-(6-methoxy-naphthalen-2-yl)-propionyl]-pyrrolidine-2-carboxylic acid 2-methoxy-4-methyl phenyl ester]
% Edema inhibition [1]: 20%

COc1ccc2cc(C(C)C(=O)N3CC(O)CC3C(=O)NCCS)ccc2c1 (stereo not drawn) [Compound 7, 4-Hydroxy-1-[2-(6-methoxy-naphthalen-2-yl)-propionyl]-pyrrolidine-2-carboxylic acid-(2-mercapto-ethyl) amide]
% Edema inhibition [1]: 31%
% Interaction with the stable free radical DPPH ([3]; compound 0.2mM): 56%
% Interaction with the stable free radical DPPH ([3]; compound 0.1mm): 34%
% decrease LDL [5]: 53.5 * %
% decrease TC [5]: 45* %
% decrease TG [5]: 51%

CCOC(=O)C(CS)NC(=O)C1CC(O)CN1C(=O)C(C)c1ccc2cc(OC)ccc2c1 (stereo not drawn) [Compound 8]
% Interaction with the stable free radical DPPH ([3]; compound 0.2mM): 75%
% Interaction with the stable free radical DPPH ([3]; compound 0.1mm): 55%
IC50 [4]: 500 µM
% decrease LDL [5]: 56.5* %
% decrease TC [5]: 35.5%
% decrease TG [5]: 25%

CCOC(=O)C(CS)NC(=O)C1CCCCN1C(=O)C(C)c1ccc2cc(OC)ccc2c1 (stereo not drawn) [Compound 9]
% Interaction with the stable free radical DPPH ([3]; compound 0.2mM): 76%
% Interaction with the stable free radical DPPH ([3]; compound 0.1mm): 46%
IC50 [4]: 122 µM
% decrease LDL [5]: 52* %
% decrease TC [5]: 40%
% decrease TG [5]: 21.3%

COc1ccc2c(c1)c(CC(=O)O)c(C)n2C(=O)c1ccc(Cl)cc1 [Indomethacin, reference compound]
% Edema inhibition [1]: 47.8%
Mortality (%) (female Fischer-344 rats): 50%

COc1ccc2cc([C@H](C)C(=O)O)ccc2c1 [Naproxen, reference compound]
% Edema inhibition [1]: 45%
Mortality (%) (female Fischer-344 rats): 50%
